According to US9149791B2, “Water-soluble carbohydrate polyethers” (TRGel, LLC, priority 2008, dated 2015):

Experiment: Solubility of monomers and polymers in water and organic solvents
Type: physicochemical
Excerpt: The DM trgel monomers as prepared by the methods exemplified in Examples 1-5 above were converted to polymers by the anionic polymerization reaction as illustrated in Reaction Scheme A and the physical properties of homopolymers of differing monomers are presented in Table 1. With reference to Table 1 it should be noted that all of the resulting polymers have very low poly dispersity (Mw/Mn). […] All trgel monomers can be copolymerized randomly or in blocks. Copolymerization of water-soluble and water insoluble monomers results in polymers with controlled solubility in water, including gel forming polymers. Water-soluble polymers are particularly useful in biological applications such as surface protection from non-specific adsorption. The data also illustrates that the glass transition temperature (Tg) of polymers with alkyl substituents decreases as the alkyl chain length increases. […] The DM trgel polymers wherein R=2-methoxyethyl or R=2-(2-methoxyethoxyethyl) show lower critical solution temperature (LCST) behavior.

Question: With `CCCCCCCCCCO[C@H]1[C@@H]2O[C@@H]2[C@@H]2OC[C@H]1O2` [DDM, 1,6:2,3-dianhydro-4-O-decyl-β-D-mannopyranose] as the compound, how does the Solubility in hexane (hexane) read?
Answer: soluble

Question: With `COCCOCCOCCOC1C2COC(O2)C2OC12` [Monomer T, 1,6:2,3-dianhydro-4-O-(2-(2-(2-metoxyethoxy)ethoxy)ethyl)-β-D-mannopyranose] as the compound, how does the Solubility in water read?
Answer: soluble

Question: With `COCCOC1C2COC(O2)C2OC12` [MEDM, 1,6:2,3-dianhydro-4-O-(2-methoxyethyl)-β-D-mannopyranose] as the compound, how does the Solubility in water read?
Answer: soluble
